Assay results reported in patent US20110008279A1, “Methods and Compositions Relating to Adhesins as Adjuvants” (priority 2005, published 2011).

Legend:
human monocytes [1] = experiment: Long-term morphology of monocytes (light microscopy); type: cell-based
Protocol: In order to evaluate the possible long-term, differentiation effect of NadA, adherent monocytes were treated with medium alone, NadAΔ351-405 or E. coli LPS and cells were cultured for seven days. At day 4 the agonists were added again to ensure a constant stimulation. Cell morphology was monitored by light microscopy after 1, 2, 3 and 7 days. […] NadAΔ351-405 thus induces both alteration cell morphology and distribution, this is a good indicator of monocyte activation and differentiation.

human macrophages = experiment: Surface markers of human macrophages; type: cell-based
Source text: (§1) The functional effect of NadA on human monocytes and macrophages was investigated using a soluble recombinant mutant lacking the membrane anchor and a full length protein expressed in E. coli OMV or N meningitidis OMV. To better define the immuno-modulatory activity of NadA, the cells were stimulated with protein plus or minus both microbial stimulus (LPS) and immunological stimulus (IFNγ).
(§2) The effect of NadAΔ351-405 on monocyte and macrophage cells was further investigated by measuring the expression of the antigen presentation marker MHC-II, the co-stimulatory molecules CD80 and CD86 and the cell adhesion molecule ICAM-1.

human monocytes [2] = experiment: Surface markers of human monocytes; type: cell-based
Source text: as §1, §2

mo-DCs [3] = experiment: Morphology of mo-DCs (light microscopy); type: cell-based, human; conditions: IFN-γ priming 18 hours, NadAΔ351-405 1.5 μM, 3 hours
human monocytes [4] = experiment: Cytokine and chemokine secretion by human monocytes (Bio-Plex, IL-23 ELISA); type: cell-based
mo-DCs [5] = experiment: Real-time PCR of cytokine mRNA in mo-DCs; type: cell-based, human
Protocol: Mo-DC were pre-treated or not with IFN-γ 1000 U/ml and stimulated with NadA […] and LPS […] for 3-5-8 h. Treated and untreated cells were pelleted and used for RNA isolation. Total RNA was extracted using the TRIzolÒ reagent (GibcoBRL) according to the manufacturer's instruction, precipitated and resuspended in […] of RNAse free water (Gibco). RNA was quantified with a fluorescence spectrophotometer (BeckmanDU 530). First strand cDNA was prepared from […] of total RNA by using the Superscript™ II Reverse Transcriptase (Invitrogen) with oligodT primers (Sigma Genosys). The cDNA levels of IL12p35, IL12p40, IL-23p19, TNF-α and IL-6 were quantified by Real Time quantitative PCR using a qPCRTM Core Kit for Sybr Green I (Eurogentec) with a GeneAmp 5700 Sequence Detection System according to the manifacturer's instructions (Applied Biosystems). After an initial denaturation step at 95° C. for 10 min, temperature cycling was initiated. Each cycle consisted of 30 sec at 95° C. and 30 sec at 60° C. […]
All amplification products were cloned into a TOPO TA vector (Invitrogen) and quantified by Beckman DU 530 spectrophotometer. […]
The cDNA levels during the linear phase of amplification were normalized against HMBS. […] CT values were determined by the GeneAmp 5700 SDS software using fluorescence threshold manually set and exported into Excel for analysis.

naïve T cells = experiment: Intracellular detection of IFN-γ and IL-4 in T cells by flow cytometry; type: cell-based, human; conditions: T cells activated by IFN-γ primed, matured mo-DCs
Protocol: Mo-DC pre-treated in various conditions were co-cultured with naïve T cells for five days and re-stimulated with ionomycin 1 μg/ml and PMA 10 ng/ml for 2.5 h and for 3 h in the presence of a Brefeldin-A, (10 μg/ml final concentration). Cells were then washed and fixed for 15 min (Fix and Penn cell permeabilization kit, Caltag). After one washing step cells were permeabilised and stained with FITC conjugated anti interferon-γ mAB (BD-Pharmigen) and PE conjugated anti IL-4 mAb (Caltag) or with irrelevant isotype control for 30 min. Then cells were washed again, resuspended and analysed by flow cytoflorimetry.

## NadAΔ351-405
Human monocytes [1]; 3-day incubation
  cell morphology: became elongated and tended to cluster
Human monocytes [1]; 7 culture days
  number of surviving cells with respect to the control: greatly increased
Human macrophages
  ICAM-1 expression: increased
Human macrophages; IFN-γ co-stimulation
  HLA-DR expression: greatly enhanced
Human macrophages; co-stimulation with IFN-γ
  CD80 expression: increased
Human macrophages; co-stimulation with LPS
  CD86 expression: Partial stimulation
Human monocytes [2]; co-stimulation with IFN-γ
  CD80 expression: increased
Human monocytes [2]; with LPS or IFN-γ
  CD86 or HLA-DR expression: No NadA immunomodulatory effect
mo-DCs [3]
  cell morphology: some cells became elongated and tended to cluster
Human monocytes [4]
  IL-10 production: induced the production
  IL-23 expression: only in the presence of IFNγ
  MCP-1 production: significant levels
Human monocytes [4]; NadA alone
  IL-1α, IL-1β and TNFα secretion: not significantly induced
  IL-8 secretion: significant secretion
  IP-10 production: In neither monocytes nor macrophages was NadA alone able to produce IP-10
Human monocytes [4]; alone or in the presence of LPS
  IL-12(p40) and IL-12(p70) expression: not significantly expressed
Human monocytes [4]; co-stimulation with LPS
  expression of IL-1α and TNFα: inhibited
Human monocytes [4]; even with IFNγ co-stimulation
  GM-CSF secretion: does not stimulate secretion
Human monocytes [4]; only in the presence of IFNγ and LPS
  IL-10 expression (so in the source): efficiently increased
Human monocytes [4]; presence or absence of LPS
  IL-6 secretion: significant secretion
Human monocytes [4]; with or without co-stimulus
  MIP-1α production: produced
mo-DCs [5]
  IL12-p40, IL12-p35 and IL-23p19 transcription: increased by NadA only if cells were primed with IFN-γ
mo-DCs [5]; IFN-γ primed mo-DCs
  transcription activities of genes encoding IL-6, TNFα, p40, p35 and p19 relative to LPS-activated cells: < 1%
naïve T cells
  IFN-γ+ T cells, % of total T cell population: 13-31%
  IFN-γ+/IL-4+ T cells, % of total T cell population: 4-12%
  IL-4+ T cells, % of total T cell population: 3-18%
